# Laboratory results as given in patent publication US20060069132A1, “Azolecarboxamide herbicides” (priority 2004, published 2006).
# Columns and labels:
# johnsongrass = test: Test C pre-/postemergence herbicide test; assay type: in vivo, Sorghum halepense; conditions: for Johnsongrass plant response rating: Preemergence, 500 g ai/ha
# How it was run: (§1)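 Visual injury scores run from 0 (no effect) to 100 (complete control), assessed relative to untreated controls 12 to 14 days after treatment in the greenhouse. Chemicals were formulated in a non-phytotoxic solvent mixture with surfactant and applied to soil after planting or to emerged plants at the 1- to 4-leaf stage.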
# barnyardgrass [1] = test: Test A pre-/postemergence herbicide test; assay type: in vivo, Echinochloa crus-galli
# How it was run: (§2)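 Pre: seeded sandy loam, directed soil spray, compound in non-phytotoxic solvent + surfactant. Post: 1–2-leaf plants (2–10 cm), sprayed to runoff. Greenhouse ~10 d; visual injury vs untreated, 0–100 scale.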
# barnyardgrass [2] = test: Test B pre-/postemergence herbicide test; assay type: in vivo, Echinochloa crus-galli
# How it was run: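 Pre: seeds sown, then sprayed. Post: 1–4-leaf plants (2–18 cm) sprayed at the same time. Paddy: flooded, treated at 2-leaf stage. Formulation: non-phytotoxic solvent with surfactant. Greenhouse 13–15 days; visual 0–100 score relative to controls.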
# morningglory = test: Test A pre-/postemergence herbicide test; assay type: in vivo, Ipomoea spp.
# How it was run: as §2
# woolly cupgrass = test: Test C pre-/postemergence herbicide test; assay type: in vivo, Eriochloa villosa; conditions: for Cupgrass, Woolly plant response rating: 500 g ai/ha
# How it was run: as §1
# lambsquarters = test: Test C pre-/postemergence herbicide test; assay type: in vivo, Chenopodium album; conditions: for Lambsquarters plant response rating: 500 g ai/ha
# How it was run: as §1
# large crabgrass = test: Test B pre-/postemergence herbicide test; assay type: in vivo, Digitaria sanguinalis
# How it was run: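 Flooded paddy rice and barnyardgrass were treated at the 2-leaf stage; upland plantings received compound either on sown seed or on 1- to 4-leaf seedlings. All were kept 13–15 days in a greenhouse and scored visually, 0–100, relative to untreated plants.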
# [3] = 125 g ai/ha, scale 0 (no effect) to 100 (complete control), visual, 12 to 14 days, preemergence
# [4] = 250 g ai/ha, scale 0 to 100 (0 no effect, 100 complete control), visual, 12 to 14 days, preemergence
# [5] = Postemergence, 125 g ai/ha, scale 0 to 100, 0 no effect, 100 complete control
# [6] = Postemergence, 250 g ai/ha, scale 0 to 100, 0 no effect, 100 complete control
# [7] = postemergence, 62 g ai/ha, scale 0 to 100
# [8] = Postemergence, 500 g ai/ha, 0 to 100 scale, 0 no effect, 100 complete control
# [9] = Postemergence, 2000 g ai/ha, 0 to 100 scale, 0 no effect, 100 complete control
# [10] = Preemergence, 500 g ai/ha, visual rating, 0 to 100 scale (0 no effect, 100 complete control)
# [11] = Preemergence, 2000 g ai/ha, 0 to 100 scale, 0 no effect, 100 complete control
# [12] = Postemergence, 125 g ai/ha, scale 0 (no effect) to 100 (complete control)
# [13] = Postemergence, 500 g ai/ha, visual rating after 13 to 15 days, scale 0 (no effect) to 100 (complete control)
# [14] = Preemergence, 500 g ai/ha, scale 0 to 100
# [15] = 62 g ai/ha, preemergence, scale 0 to 100
# [16] = scale 0 to 100, 0 no effect, 100 complete control
# [17] = Preemergence, 2000 g ai/ha, visual rating, 0 to 100 scale (0 no effect, 100 complete control)
# [18] = 500 g ai/ha, visual rating 0-100, 0 no effect, 100 complete control, preemergence
# [19] = postemergence, 125 g ai/ha, visual rating, scale 0 (no effect) to 100 (complete control)
# [20] = postemergence, 500 g ai/ha, visual rating, scale 0 (no effect) to 100 (complete control)
# [21] = preemergence, 125 g ai/ha, 0 to 100 scale, 0 is no effect, 100 is complete control
# [22] = Preemergence, scale 0 to 100, 0 no effect, 100 complete control
# [23] = postemergence, 125 g ai/ha, scale 0 to 100
SMILES,"Plant response rating (0 = no effect, 100 = complete control), Johnsongrass (johnsongrass; 62 g ai/ha, preemergence)","Plant response rating, Johnsongrass (johnsongrass; [3])","Plant response rating, Johnsongrass (johnsongrass; [6])","Plant response rating, Johnsongrass (johnsongrass; [7])","Plant response rating, Barnyardgrass (barnyardgrass [1]; [9])",Barnyardgrass plant response rating (barnyardgrass [1]; [10]),"Plant response rating, Morningglory (morningglory; [9])",Morningglory plant response rating (morningglory; [10]),"Plant response rating (0 = no effect, 100 = complete control), Cupgrass, Woolly (woolly cupgrass; 62 g ai/ha, preemergence)","Plant response rating, Cupgrass, Woolly (woolly cupgrass; [3])","Plant response rating, Cupgrass, Woolly (woolly cupgrass; [4])","Plant response rating, Cupgrass, Woolly (woolly cupgrass; [6])","Plant response rating, Cupgrass, Woolly (woolly cupgrass; [7])","Plant response rating (0 = no effect, 100 = complete control), Lambsquarters (lambsquarters; 62 g ai/ha, preemergence)","Plant response rating, Lambsquarters (lambsquarters; [3])","Plant response rating, Lambsquarters (lambsquarters; [6])","Plant response rating, Lambsquarters (lambsquarters; [7])",Johnsongrass plant response rating (johnsongrass; [16]),Barnyardgrass plant response rating (barnyardgrass [1]; [8]),Barnyardgrass plant response rating (barnyardgrass [1]; [17]),also measured
CCn1nc(C(C)(C)C)cc1C(=O)Nc1cccc(C(=O)NC2CC2)c1 [Compound 44],30,30,40,30,100,75,45,10,0,10,10,60,50,90,100,90,90,–,–,–,"Plant response rating, Johnsongrass (johnsongrass; [4]): 50; Plant response rating, Johnsongrass (johnsongrass; [5]): 30; Plant response rating, Barnyardgrass (barnyardgrass [1]; [8]): 90; Barnyardgrass plant response rating (barnyardgrass [1]; [11]): 90; Barnyardgrass plant response rating (barnyardgrass [2]; [12]): 20; Plant response rating, Barnyardgrass (barnyardgrass [2]; [13]): 60; Barnyardgrass plant response rating (barnyardgrass [2]; [14]): 100; Plant response rating, Morningglory (morningglory; [8]): 15; Morningglory plant response rating (morningglory; [11]): 30; Plant response rating, Cupgrass, Woolly (woolly cupgrass; [5]): 60; Plant response rating, Lambsquarters (lambsquarters; [4]): 100; Crabgrass, Large plant response rating (large crabgrass; [12]): 20; Plant response rating, Crabgrass, Large (large crabgrass; [13]): 90; Crabgrass, Large plant response rating (large crabgrass; [14]): 100"
CCN(CC)C(=O)c1ccnc(NC(=O)c2cc(C(C)(C)C)nn2CC)c1 [Compound 153],–,15,–,–,100,80,85,10,–,0,0,–,–,–,100,–,–,85,75,90,"Plant response rating, Johnsongrass (johnsongrass; [15]): 0; Plant response rating, Barnyardgrass (barnyardgrass [2]; [18]): 90; Barnyardgrass plant response rating (barnyardgrass [2]; [19]): 30; Barnyardgrass plant response rating (barnyardgrass [2]; [20]): 30; Plant response rating, Barnyardgrass (barnyardgrass [2]; [21]): 60; Morningglory plant response rating (morningglory; [8]): 35; Morningglory plant response rating (morningglory; [17]): 55; Plant response rating, Cupgrass, Woolly (woolly cupgrass; [15]): 0; Cupgrass, Woolly plant response rating (woolly cupgrass; [22]): 60; Plant response rating, Lambsquarters (lambsquarters; [15]): 95; Lambsquarters plant response rating (lambsquarters; [22]): 100; Plant response rating, Crabgrass, Large (large crabgrass; [18]): 80; Crabgrass, Large plant response rating (large crabgrass; [19]): 10; Crabgrass, Large plant response rating (large crabgrass; [20]): 20; Plant response rating, Crabgrass, Large (large crabgrass; [21]): 50"
CCNC(=O)c1cccc(NC(=O)c2cc(C(C)(C)C)nn2CC)n1 [Compound 144],0,0,10,0,100,100,35,20,0,5,5,50,0,95,95,100,100,90,85,100,"Plant response rating, Johnsongrass (johnsongrass; [23]): 0; Plant response rating, Barnyardgrass (barnyardgrass [2]; [18]): 100; Barnyardgrass plant response rating (barnyardgrass [2]; [19]): 70; Barnyardgrass plant response rating (barnyardgrass [2]; [20]): 80; Plant response rating, Barnyardgrass (barnyardgrass [2]; [21]): 90; Morningglory plant response rating (morningglory; [8]): 25; Morningglory plant response rating (morningglory; [17]): 75; Cupgrass, Woolly plant response rating (woolly cupgrass; Postemergence, scale 0 to 100): 50; Cupgrass, Woolly plant response rating (woolly cupgrass; [22]): 70; Plant response rating, Cupgrass, Woolly (woolly cupgrass; [23]): 30; Lambsquarters plant response rating (lambsquarters; Postemergence, scale 0 to 100): 100; Lambsquarters plant response rating (lambsquarters; [22]): 100; Plant response rating, Lambsquarters (lambsquarters; [23]): 100; Plant response rating, Crabgrass, Large (large crabgrass; [18]): 100; Crabgrass, Large plant response rating (large crabgrass; [19]): 30; Crabgrass, Large plant response rating (large crabgrass; [20]): 100; Plant response rating, Crabgrass, Large (large crabgrass; [21]): 80"
